Measurements as given in patent US20250179066A1, “ZWITTERIONIC ANTIBACTERIAL COMPOUNDS” (Hoffmann-La Roche Inc., priority 2022, published 2025).
Structures can show the parent of a compound that is named as a salt.

system: Acinetobacter baumannii ATCC17961; assay: Antimicrobial susceptibility testing: 90% growth inhibitory concentration (IC90) determination; assay type: cell-based; conditions: Acinetobacter baumannii, ATCC17961, 16 h, 90% growth inhibitory concentration against Acinetobacter baumannii ATCC17961, Iso-Sensitest broth, OD 600 nm over 16 h; read-out: ATCC 17961 IC90
How it was run: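 OD600 monitored each minute over 16 h at 35±2° C for bacteria (~5×10^5 CFU/mL final) in Iso-Sensitest medium with 10-point twofold compound series (e.g. 10-0.0195 μM final). Concentration giving 90% growth inhibition in log phase reported as IC90.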

| SMILES | IC90 |
| --- | --- |
| Cn1c(-c2cn(-c3ccc4c(ccn4C(C)(C)C(N)=O)n3)nc2C(F)(F)F)cnc1C(=O)Nc1ccc(C(=O)N2CCN(C(=O)[C@H]3CC[N@+](CC(=O)O)(CC4CNC4)CC3)CC2)c(Cl)c1 [Example 138, cis-2-[4-[4-[4-[[5-[1-[1-(2-amino-1,1-dimethyl-2-oxo-ethyl)pyrrolo[3,2-b]pyridin-5-yl]-3-(trifluoromethyl)pyrazol-4-yl]-1-methyl-imidazole-2-carbonyl]amino]-2-chloro-benzoyl]piperazine-1-carbonyl]-1-(azetidin-3-ylmethyl)piperidin-1-ium-1-yl]acetic acid;chloride] | 408 nM |
| Cn1c(-c2cn(-c3cc4[nH]c(C(=O)N5CCOCC5)cc4cn3)nc2C(F)(F)F)cnc1C(=O)Nc1ccc(C(=O)N2CCN(C(=O)[C@H]3CC[N@+](CC(=O)O)(CC4CNC4)CC3)CC2)c(Cl)c1 [Example 139, cis-2-[1-(azetidin-3-ylmethyl)-4-[4-[2-chloro-4-[[1-methyl-5-[1-[2-(morpholine-4-carbonyl)-1H-pyrrolo[3,2-c]pyridin-6-yl]-3-(trifluoromethyl)pyrazol-4-yl]imidazole-2-carbonyl]amino]benzoyl]piperazine-1-carbonyl]piperidin-1-ium-1-yl]acetic acid. 1:1 2,2,2-trifluoroacetate] | 172 nM |
| Cn1c(-c2cn(-c3ccc(N)cc3F)nc2C(F)(F)F)cnc1C(=O)Nc1ccc(C(=O)N2CCN(C(=O)N3CC[N+](CC(=O)O)(CC4CNC4)CC3)CC2)c(Cl)c1 [Example 140, 2-[4-[4-[4-[[5-[1-(4-amino-2-fluoro-phenyl)-3-(trifluoromethyl)pyrazol-4-yl]-1-methyl-imidazole-2-carbonyl]amino]-2-chloro-benzoyl]piperazine-1-carbonyl]-1-(azetidin-3-ylmethyl)piperazin-1-ium-1-yl]acetic acid. 1:1 2,2,2-trifluoroacetate] | 334 nM |
| Cn1c(-c2cn(-c3ccc(N)cc3F)nc2C(F)(F)F)cnc1C(=O)Nc1ccc(C(=O)N2CCN(C(=O)N3CC[N+](CCCN)(CC(=O)O)CC3)CC2)c(Cl)c1 [Example 141, 2-[4-[4-[4-[[5-[1-(4-amino-2-fluoro-phenyl)-3-(trifluoromethyl)pyrazol-4-yl]-1-methyl-imidazole-2-carbonyl]amino]-2-chloro-benzoyl]piperazine-1-carbonyl]-1-(3-aminopropyl)piperazin-1-ium-1-yl]acetic acid. 1:1 2,2,2-trifluoroacetate] | 242 nM |
| Cn1c(-c2cn(-c3cc4[nH]c(CCN)cc4cn3)nc2C(F)(F)F)cnc1C(=O)Nc1ccc(C(=O)N2CCN(C(=O)[C@H]3CC[N@+](CC(=O)O)(CC4CNC4)CC3)CC2)c(Cl)c1 [Example 142, cis-2-[4-[4-[4-[[5-[1-[2-(2-aminoethyl)-1H-pyrrolo[3,2-c]pyridin-6-yl]-3-(trifluoromethyl)pyrazol-4-yl]-1-methyl-imidazole-2-carbonyl]amino]-2-chloro-benzoyl]piperazine-1-carbonyl]-1-(azetidin-3-ylmethyl)piperidin-1-ium-1-yl]acetic acid;formate] | 69.5 nM |
| CNC(=O)n1ccc2nc(-n3cc(-c4cnc(C(=O)Nc5ccc(C(=O)N6CCN(C(=O)[C@H]7CC[N@+](CC(=O)O)(CC8CNC8)CC7)CC6)c(Cl)c5)n4C)c(C(F)(F)F)n3)ccc21 [Example 143, cis-2-[1-(azetidin-3-ylmethyl)-4-[4-[2-chloro-4-[[1-methyl-5-[1-[1-(methylcarbamoyl)pyrrolo[3,2-b]pyridin-5-yl]-3-(trifluoromethyl)pyrazol-4-yl]imidazole-2-carbonyl]amino]benzoyl]piperazine-1-carbonyl]piperidin-1-ium-1-yl]acetic acid. 1:1 formate] | 682 nM |
| Cn1c(-c2cn(-c3ccc4[nH]c(CO)cc4n3)nc2C(F)(F)F)cnc1C(=O)Nc1ccc(C(=O)N2CCN(C(=O)N3CC[N+](CC(=O)O)(CC4CNC4)CC3)CC2)c(Cl)c1 [Example 144, 2-[1-(azetidin-3-ylmethyl)-4-[4-[2-chloro-4-[[1-methyl-5-[1-(2-methylol-1H-pyrrolo[3,2-b]pyridin-5-yl)-3-(trifluoromethyl)pyrazol-4-yl]imidazole-2-carbonyl]amino]benzoyl]piperazine-1-carbonyl]piperazin-1-ium-1-yl]acetic acid. 1:1 2,2,2-trifluoroacetate] | 269 nM |
| Cn1c(-c2cn(-c3ccc4[nH]c(CO)cc4n3)nc2C(F)(F)F)cnc1C(=O)Nc1ccc(C(=O)N2CCN(C(=O)C3CC[N+](CCCN)(CC(=O)O)CC3)CC2)c(Cl)c1 (stereo not drawn) [Example 145] | 205 nM |

The remaining lines, values ahead:

| IC90 | SMILES |
| --- | --- |
| 311 nM | Cn1c(-c2cn(-c3cc4[nH]cc(C(=O)NCCO)c4cn3)nc2C(F)(F)F)cnc1C(=O)Nc1ccc(C(=O)N2CCN(C(=O)[C@H]3CC[N@+](CC(=O)O)(CC4CNC4)CC3)CC2)c(Cl)c1 [Example 146, cis-2-[1-(azetidin-3-ylmethyl)-4-[4-[2-chloro-4-[[5-[1-[3-(2-hydroxyethylcarbamoyl)-1H-pyrrolo[3,2-c]pyridin-6-yl]-3-(trifluoromethyl)pyrazol-4-yl]-1-methyl-imidazole-2-carbonyl]amino]benzoyl]piperazine-1-carbonyl]piperidin-1-ium-1-yl]acetic acid. 1:1 2,2,2-trifluoroacetate] |
| 181 nM | Cn1c(-c2cn(-c3cc4[nH]cc(C(=O)N5CCNCC5)c4cn3)nc2C(F)(F)F)cnc1C(=O)Nc1ccc(C(=O)N2CCN(C(=O)[C@H]3CC[N@+](CC(=O)O)(CC4CNC4)CC3)CC2)c(Cl)c1 [Example 147, cis-2-[1-(azetidin-3-ylmethyl)-4-[4-[2-chloro-4-[[1-methyl-5-[1-[3-(piperazine-1-carbonyl)-1H-pyrrolo[3,2-c]pyridin-6-yl]-4-(trifluoromethyl)pyrazol-4-yl]imidazole-2-carbonyl]amino]benzoyl]piperazine-1-carbonyl]piperidin-1-ium-1-yl]acetic acid. 1:1 2,2,2-trifluoroacetate] |
| 349 nM | CN1CCN(C(=O)c2c[nH]c3cc(-n4cc(-c5cnc(C(=O)Nc6ccc(C(=O)N7CCN(C(=O)[C@H]8CC[N@+](CC(=O)O)(CC9CNC9)CC8)CC7)c(Cl)c6)n5C)c(C(F)(F)F)n4)ncc23)CC1 [Example 148, cis-2-[1-(azetidin-3-ylmethyl)-4-[4-[2-chloro-4-[[1-methyl-5-[1-[3-(4-methylpiperazine-1-carbonyl)-1H-pyrrolo[3,2-c]pyridin-6-yl]-3-(trifluoromethyl)pyrazol-4-yl]imidazole-2-carbonyl]amino]benzoyl]piperazine-1-carbonyl]piperidin-1-ium-1-yl]acetic acid. 1:1 2,2,2-trifluoroacetate] |
| 744 nM | Cn1c(-c2cn(-c3cc4nn(CC(N)=O)cc4cn3)nc2C(F)(F)F)cnc1C(=O)Nc1ccc(C(=O)N2CCN(C(=O)[C@H]3CC[N@+](CC(=O)O)(CC4CNC4)CC3)CC2)c(Cl)c1 [Example 149, cis-2-[4-[4-[4-[[5-[1-[2-(2-amino-2-keto-ethyl)pyrazolo[4,3-c]pyridin-6-yl]-3-(trifluoromethyl)pyrazol-4-yl]-1-methyl-imidazole-2-carbonyl]amino]-2-chloro-benzoyl]piperazine-1-carbonyl]-1-(azetidin-3-ylmethyl)piperidin-1-ium-1-yl]acetic acid. 1:1 2,2,2-trifluoroacetate] |
